#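 How tested: cells in 96-well plates exposed to compound for 48 hours at five concentrations. GI50 marks 50% less growth.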 Active and inactive are the calls of the source. Cut-off read from the data, not from the text of the source: active = GI50 up to about 1.1 µM and inactive = higher.
# Experiments:
# Experiment in all cases: NCI anticancer screen, dose series, 48 h
# T47D = tested on: T47D
# RPMI-8226 = tested on: RPMI-8226
# U-251 = tested on: U-251
# MDA-MB-435 = tested on: MDA-MB-435
# HOP-92 = tested on: HOP-92
# KM12 = tested on: KM12
# SN12C = tested on: SN12C
# A549 = tested on: A549
# CAKI-1 = tested on: CAKI-1
# SF-539 = tested on: SF-539
# UACC-62 = tested on: UACC-62
# IGROV-1 = tested on: IGROV-1
# CCRF-CEM = tested on: CCRF-CEM
# SR = tested on: SR
# EKVX = tested on: EKVX
# Hs-578T = tested on: Hs-578T
# PC-3 = tested on: PC-3
# SF-268 = tested on: SF-268
# SK-OV-3 = tested on: SK-OV-3
# RXF 393 = tested on: RXF 393
Compound,GI50 (T47D),GI50 (RPMI-8226),GI50 (U-251),GI50 (MDA-MB-435),GI50 (HOP-92),GI50 (KM12),GI50 (SN12C),GI50 (A549),GI50 (CAKI-1),GI50 (SF-539),GI50 (UACC-62),GI50 (IGROV-1),GI50 (CCRF-CEM),GI50 (SR),GI50 (EKVX),GI50 (Hs-578T),GI50 (PC-3),GI50 (SF-268),GI50 (SK-OV-3),GI50 (RXF 393)
CC(=O)Oc1cc(S(=O)(=O)Nc2n[nH]c(Nc3ccc(C)cc3)n2)c(S)cc1Cl,> 100 µM (inactive),> 100 µM (inactive),> 100 µM (inactive),> 100 µM (inactive),> 100 µM (inactive),> 100 µM (inactive),> 100 µM (inactive),> 100 µM (inactive),> 100 µM (inactive),> 100 µM (inactive),> 100 µM (inactive),> 100 µM (inactive),94.8 µM (inactive),66.7 µM (inactive),> 100 µM (inactive),79.3 µM (inactive),> 100 µM (inactive),–,–,–
O=C(CCN1CCOCC1)Nc1ccc(F)cc1F,> 100 µM (inactive),> 100 µM (inactive),> 100 µM (inactive),> 100 µM (inactive),> 100 µM (inactive),> 100 µM (inactive),> 100 µM (inactive),> 100 µM (inactive),> 100 µM (inactive),> 100 µM (inactive),> 100 µM (inactive),> 100 µM (inactive),–,> 100 µM (inactive),> 100 µM (inactive),> 100 µM (inactive),> 100 µM (inactive),> 100 µM (inactive),> 100 µM (inactive),–
O=P1(Oc2ccccc2)N=P(c2ccccc2)(c2ccccc2)C=C(c2ccc(Cl)cc2)N1 (centres undefined),5.19 µM (inactive),3.03 µM (inactive),5.51 µM (inactive),4.44 µM (inactive),9.18 µM (inactive),10.3 µM (inactive),16.6 µM (inactive),3.97 µM (inactive),9.66 µM (inactive),15.3 µM (inactive),13.9 µM (inactive),12.2 µM (inactive),9.38 µM (inactive),3.6 µM (inactive),7.89 µM (inactive),16.7 µM (inactive),6.58 µM (inactive),11.6 µM (inactive),13.2 µM (inactive),–
c1ccc(C(CCN2CCCC2)c2ccccn2)cc1 (centres undefined),> 100 µM (inactive),> 100 µM (inactive),> 100 µM (inactive),> 100 µM (inactive),> 100 µM (inactive),> 100 µM (inactive),> 100 µM (inactive),> 100 µM (inactive),> 100 µM (inactive),–,> 100 µM (inactive),> 100 µM (inactive),–,< 0.01 µM (active),> 100 µM (inactive),> 100 µM (inactive),> 100 µM (inactive),> 100 µM (inactive),> 100 µM (inactive),> 100 µM (inactive)
Cc1ccc2nc(Cl)c(/C=N/N3C(=O)/C(=C/c4cccc([N+](=O)[O-])c4)N=C3c3ccccc3)cc2c1,59.8 µM (inactive),31.3 µM (inactive),89.7 µM (inactive),20.7 µM (inactive),46.3 µM (inactive),36.6 µM (inactive),35.7 µM (inactive),60.1 µM (inactive),66.4 µM (inactive),> 100 µM (inactive),34 µM (inactive),31.2 µM (inactive),25.9 µM (inactive),19.8 µM (inactive),54.6 µM (inactive),94.6 µM (inactive),25.4 µM (inactive),97.1 µM (inactive),94.2 µM (inactive),–
O=C1C=C(Nc2cccnc2)c2ccccc2/C1=N/O,30.1 µM (inactive),38 µM (inactive),26.3 µM (inactive),12.7 µM (inactive),21.8 µM (inactive),13.6 µM (inactive),34.4 µM (inactive),39.6 µM (inactive),40.4 µM (inactive),18.5 µM (inactive),20.9 µM (inactive),13.6 µM (inactive),5.85 µM (inactive),–,14.7 µM (inactive),33.4 µM (inactive),19.5 µM (inactive),9.77 µM (inactive),46.2 µM (inactive),33.7 µM (inactive)
COC(=O)CN1SC2(SC13C(C)(C)C(=O)C3(C)C)C(C)(C)C(=O)C2(C)C,> 100 µM (inactive),49.8 µM (inactive),94.4 µM (inactive),56.2 µM (inactive),0.0244 µM (active),44.6 µM (inactive),48.3 µM (inactive),51.2 µM (inactive),54.2 µM (inactive),> 100 µM (inactive),> 100 µM (inactive),89.5 µM (inactive),11.1 µM (inactive),81.8 µM (inactive),63.4 µM (inactive),> 100 µM (inactive),29.2 µM (inactive),36.1 µM (inactive),41 µM (inactive),–
Cc1n(Cc2ccccc2)c2c([n+]1C)C(=O)c1ccccc1C2=O,0.215 µM (active),0.0296 µM (active),0.0324 µM (active),0.183 µM (active),0.369 µM (active),0.0605 µM (active),0.0318 µM (active),0.0478 µM (active),3.15 µM (inactive),0.026 µM (active),0.17 µM (active),0.0301 µM (active),0.456 µM (active),–,0.181 µM (active),0.415 µM (active),0.0838 µM (active),0.0274 µM (active),0.389 µM (active),0.294 µM (active)
O=c1oc2ccccc2cc1/C=N/N1C(=S)N(c2ccccc2)C(=N\c2ccccc2)/C1=N/c1ccccc1,3.49 µM (inactive),> 100 µM (inactive),> 100 µM (inactive),> 100 µM (inactive),> 100 µM (inactive),> 100 µM (inactive),> 100 µM (inactive),> 100 µM (inactive),> 100 µM (inactive),> 100 µM (inactive),98.2 µM (inactive),> 100 µM (inactive),–,> 100 µM (inactive),> 100 µM (inactive),> 100 µM (inactive),14 µM (inactive),> 100 µM (inactive),> 100 µM (inactive),26.4 µM (inactive)
CCOC(=O)Nc1sc2c(c1C#N)CC(C)CC2 (centres undefined),10.5 µM (inactive),4.86 µM (inactive),5.42 µM (inactive),1.32 µM (inactive),25.4 µM (inactive),3.9 µM (inactive),9.62 µM (inactive),5.06 µM (inactive),21.8 µM (inactive),–,4.49 µM (inactive),7.52 µM (inactive),–,1.4 µM (inactive),24.7 µM (inactive),8.59 µM (inactive),5.35 µM (inactive),10.7 µM (inactive),23 µM (inactive),5.38 µM (inactive)
Clc1ncnc2c1nc(C#Cc1ccccc1)n2C1CCCCO1 (centres undefined),1.7 µM (inactive),–,2.08 µM (inactive),2.35 µM (inactive),1.8 µM (inactive),1.63 µM (inactive),1.78 µM (inactive),1.99 µM (inactive),1.97 µM (inactive),1.91 µM (inactive),2.42 µM (inactive),–,2.33 µM (inactive),–,1.95 µM (inactive),3.95 µM (inactive),3.27 µM (inactive),2.32 µM (inactive),7.67 µM (inactive),1.51 µM (inactive)
CCC(C)C(=O)OCC(=O)c1ccc(-c2ccccc2)cc1 (centres undefined),22.3 µM (inactive),24.5 µM (inactive),50.5 µM (inactive),99.1 µM (inactive),> 100 µM (inactive),28.1 µM (inactive),> 100 µM (inactive),44.1 µM (inactive),42.7 µM (inactive),> 100 µM (inactive),79.3 µM (inactive),> 100 µM (inactive),35 µM (inactive),31.6 µM (inactive),25.6 µM (inactive),45.9 µM (inactive),63 µM (inactive),41.4 µM (inactive),> 100 µM (inactive),–
COc1ccc2oc(=O)c(CC=C(C)C)c(O)c2c1C,> 100 µM (inactive),> 100 µM (inactive),> 100 µM (inactive),> 100 µM (inactive),–,> 100 µM (inactive),> 100 µM (inactive),> 100 µM (inactive),> 100 µM (inactive),> 100 µM (inactive),> 100 µM (inactive),> 100 µM (inactive),> 100 µM (inactive),> 100 µM (inactive),> 100 µM (inactive),> 100 µM (inactive),> 100 µM (inactive),> 100 µM (inactive),> 100 µM (inactive),–
C[n+]1c(-c2ccc(/C=N/NC(=N)N/N=C/c3ccc(-c4cn5cc(Cl)ccc5[n+]4C)cc3)cc2)cn2cc(Cl)ccc21,> 100 µM (inactive),> 100 µM (inactive),> 100 µM (inactive),> 100 µM (inactive),–,> 100 µM (inactive),> 100 µM (inactive),> 100 µM (inactive),–,> 100 µM (inactive),–,> 100 µM (inactive),> 100 µM (inactive),> 100 µM (inactive),> 100 µM (inactive),> 100 µM (inactive),> 100 µM (inactive),> 100 µM (inactive),> 100 µM (inactive),–
C=CCN1C[C@@H](C)N([C@@H](c2ccc(C(=O)N(CC)CC)cc2)c2cccc(OC)c2)C[C@@H]1C,> 100 µM (inactive),> 100 µM (inactive),> 100 µM (inactive),> 100 µM (inactive),> 100 µM (inactive),> 100 µM (inactive),> 100 µM (inactive),> 100 µM (inactive),> 100 µM (inactive),> 100 µM (inactive),> 100 µM (inactive),> 100 µM (inactive),3.7 µM (inactive),> 100 µM (inactive),> 100 µM (inactive),> 100 µM (inactive),> 100 µM (inactive),> 100 µM (inactive),> 100 µM (inactive),–

# From ChEMBL document CHEMBL1201862, “PubChem BioAssay data set” (2004)
